Laboratory results as given in paper PMC9727064, “Performance assessment and economic analysis of a human Liver-Chip for predictive toxicology” (Communications Medicine, 2022).
“And” between values parts separate entries of the source, which are not always exact repeats. Identical values can stand only once. Like-named read-outs stand apart in the source and are kept apart here.

Key:
[1] = tested on: human Liver-Chip (hepatocytes and non-parenchymal cells); settings: for Morphology Score: injury score 0-4, averaged, one line per replicate chip
Method: At least four to six brightfield images were acquired per chip for morphology analysis. […] Brightfield images were acquired across three fields of view on days 1, 3, and 7 for each cycle. Cytotoxicity classification was performed while acquiring images for both NPCs and hepatocytes. Images were then scored zero to four by blinded individuals (n = 2) based on severity of agglomeration of cell debris for both channels. The scoring matrix and representative images have been included in the supplement (Supplementary Fig. 1).
Hepatocyte layer on Chips
Non-parenchymal cell layer on Chips
Supplementary Figure 1. (a) Representative brightfield images to depict the cellular morphology score in the top channel of the Liver-Chip which contains hepatocytes. A score of 0 represents no hepatotoxicity detected, which is defined by 95-100% healthy hepatocyte morphology, hexagonal shape containing binucleated cells, clear cell cytoplasm, distinctive cell junctions and less than 5% dead cells. A score of 1 […]
cells. A score of 2 represents mild hepatotoxicity with > 70% monolayer of hepatocytes visible, evidence that cells have begun to lose their distinct cell junctions, many cells contain a granulated cytoplasm but < 30% are dead cells. A score of 3 represents moderate hepatotoxicity with severe granulation of cytoplasm and most of the cells have lost their junctions. Approximately 50% of the cells are considered dead. A score of 4 represents severe hepatotoxicity with agglomeration of cell debris and > 50% of the cells are considered dead. The pores on the membrane become visible as there is no longer a cellular monolayer. (b) Representative brightfield images to depict the cellular morphology score in the bottom channel of the Liver-Chip which contains non-parenchymal cells. A score of 0 represents no cytotoxicity detected, with an intact monolayer and <1% of the cells are dead. A score of 1 represents at least 90% of the monolayer is present and there are <10% dead cells. A score of 2 represents mild cytotoxicity with > 80% of the monolayer present and < 20% are dead cells. A score of 3 represents moderate cytotoxicity with > 50% of the monolayer present and < 50% are dead cells. A score of 4 represents severe cytotoxicity with > 50% of the cells are considered dead. (bar, 50 μm). […]

[2] = cited from earlier work
[3] = tested on: 3D spheroid cultures of primary human hepatocytes; settings: cited from earlier work; for Spheroid false negative: Yes/No, also No for drugs not tested in spheroid; for Spheroid MOS: 3D hepatic spheroids, previously published data
[4] = tested on: human Liver-Chip (primary human hepatocytes); assay: Liver-Chip albumin production in top channel effluent (ELISA); type: cell-based
Text: Cycles 1 to 4 tested 6–8 concentrations in duplicate for each of 10–13 drugs. To determine which sampling strategy was optimal for cycles 1 to 4 (16 doses × 1 replicate, 8 × 2, 5 × 3, or 4 × 4), we generated three different “dose-response” synthetic datasets, each distorted by different noise levels (low, medium, or high). For each of these datasets, we performed curve-fitting analyses and calculated the Root Mean Square Error between the “true” and estimated IC50 parameter. […] Some drugs were also repeated across cycles (on different donors or at different concentrations) to ensure experimental robustness. However, to replicate a more typical study design likely to be carried out by scientists in the pharmaceutical industry, we created cycle 5 with 6 drugs, where each was tested in 4 concentrations in triplicate. For each cycle, chips were dosed with drug over 8 days (referred to as Day 0 through Day 7).
The drug dosing concentrations were determined from the unbound human Cmax of each drug. First, the expected fraction of drug unbound in media with 2% FBS was extrapolated from plasma binding data for each drug. Dosing concentrations were then back calculated such that the unbound fraction in media would reflect relevant multiples of unbound human Cmax (Supplementary Data 1).
On the first dosing day (Day 0), all chips were imaged using the ECHO microscope. Five hundred microliters of effluent was collected from all four reservoirs of the pod and placed in a labeled 96-well plate. After collection, all the remaining media was carefully aspirated before dosing with 3.8 mL of corresponding dosing solution. Dosing occurred on study days 0, 2, and 4 for chips flowing at 30 µL/h, and on days 0, 1, 2, 3, 4, 5, and 6 for chips flowing at 150 µL/h. Effluent collection occurred on days 1, 3, and 7.
Top channel outlet effluents were analyzed to quantify albumin and alanine transaminase (ALT) levels on days 1, 3, and 7 using sandwich ELISA kits (Abcam, Albumin ab179887, ALT ab234578) according to vendor-provided protocols. Frozen (−80 °C) effluent samples were thawed overnight at 4 °C prior to assay. The Hamilton Vantage liquid handling platform was used to manage effluent dilutions (1:500 for albumin, neat for ALT), preparation of standard curves, and addition of antibody cocktail. Absorbance at 450 nm was measured using the SynergyNeo Microplate Reader (BioTek).
All statistical analyses were conducted in R[21] (version 4.1.2) and figures were produced using the R package ggplot2[22] (version 3.3.5). The dose-response analysis (Fig. 4) was carried out using the popular drc R package developed by Ritz et al.[23] using the generalized log-logistic dose-response model. The error bars in Figs. 3 and 4, correspond to the standard errors of the mean. The circles in Fig. 3 correspond to the samples used to calculate the corresponding statistics. The analysis of significance in Fig. 3 was performed using paired t-test across different days (same donor) and unpaired t-test across different donors (same day). In Fig. 3 the number of samples used were n = 3 for donor two, and n = 4 for donor three. For both donors, the number of the freshly thawed hepatocyte samples used to estimate the corresponding log2(Fold Change) were n = 4. Finally, the analysis of significance in Fig. 3 was performed using paired t-test.

[5] = tested on: clinical drug-induced liver injury; settings: clinical DILI severity category 1 to 5; cited from earlier work
human Liver-Chip = assay: Liver-Chip DILI prediction: minimum toxic concentration and margin of safety (MOS)-like figure; settings: for Chip MOS donor 1 / Chip MOS both donors / Chip MOS donor 2: free IC50 concentration in the assay divided by total concentration of drug in human plasma at Cmax; for Liver-Chip toxicity determination, MOS-like figure against threshold value of 50: not corrected for protein binding, donors one and two;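 as to Chip MOS both donors: Toxic concentration is the lowest across albumin IC50 and ALT and morphology endpoints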;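 as to Chip MOS donor 1: Toxic concentration is the lowest across albumin IC50 and ALT and morphology endpoints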;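 as to Chip MOS donor 2: Toxic concentration is the lowest across albumin IC50 and ALT and morphology endpoints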
Text: Because the fundamental principles of drug action dictate that free (unbound) drug concentrations drive drug effects, we explored an alternative methodology for calculating the MOS-like values by accounting for protein binding using a previously reported approach. Accordingly, we reanalyzed the findings for the 27 drugs in our study by accounting for protein binding.

[6] = cited from earlier work; remark: listed apart in the source
[7] = lowest concentration causing an increase in cellular morphology score, donor 1
[8] = lowest concentration causing an increase in cellular morphology score, donor 2
[9] = human, total plasma Cmax, ref Vorrink, S. U., Zhou, Y., Ingelman- Sundberg, M. & Lauschke, V.M. (30)
[10] = concentration causing a 50% reduction in albumin production
[11] = expanded drug list, lowest multiplier causing a 50% reduction in albumin production

Row | SMILES | Morphology Donor 1 ([1]; human) | Spheroid false negative [3] | Garside DILI rank [5] | Chip MOS donor 1 (human Liver-Chip) | Morphology Donor 2 ([1]; human) | Spheroid MOS [3] | Chip MOS both donors (human Liver-Chip) | Chip MOS donor 2 (human Liver-Chip) | Liver-Chip toxicity determination, MOS-like figure against threshold value of 50 (human Liver-Chip) | further results
1 | C=C[C@@H]1C[C@]1(NC(=O)[C@@H]1C[C@@H](Oc2ncc(OC)c3ccc(Cl)cc23)CN1C(=O)[C@@H](NC(=O)OC(C)(C)C)C(C)(C)C)C(=O)NS(=O)(=O)C1CC1 [Asunaprevir] | 1000 unbound human Cmax multiplier | No | 2 | 4 | – | – | – | – | – | Morphological injury score change in words [1]: concentration and time-dependent changes; Human Cmax Total ([2]; human, total plasma Cmax, ref Schulz, M. & Schmoldt, A. (64)): 764.4 nM; Albumin change in words ([4]; Liver-Chip effluent): concentration and time-dependent changes; Expected Fraction Unbound in Plasma ([6]; plasma, ref Lau, S.W.J. (65)): 0.012
2 | CC(C(=O)O)c1ccc2oc(-c3ccc(Cl)cc3)nc2c1 (stereo not drawn) [Benoxaprofen] | < 0.1 unbound human Cmax multiplier | Yes | 1 | 0.001 | 100 unbound human Cmax multiplier | >0.7 | 0.001 | 0.3 | hepatotoxic | Human Cmax Total ([2]; human, total plasma Cmax, ref Chatsiricharoenkul, S., Niyomnaitham, Pongnarin, P., Sathirakul, K. & Kongpatanakul, S. (66)): 149100 nM; Expected Fraction Unbound in Plasma ([6]; plasma, ref Scott, L. J. (69)): 0.01
3 | O=c1[nH]c(=O)n([C@@H]2O[C@H](CO)[C@@H](O)[C@@H]2F)cc1I [FIRU] | – | No | 5 | >108 | – | – | >108 | >108 | – | Morphology Donor 1 [1, 7]: >300 multiples of the unbound human Cmax; Morphology Donor 2 [1, 8]: >300 multiples of the unbound human Cmax; Human Cmax Total [2, 9]: *0.64µM; Albumin IC50 Donor 1 [4, 10]: >300 multiples of the unbound human Cmax; Albumin IC50 Donor 2 [4, 10]: >300 multiples of the unbound human Cmax; Expected Fraction Unbound in Plasma ([6]; plasma, ref Scott, L. J. (69)): *0.36
4 | CC(CCc1ccccc1)NCC(O)c1ccc(O)c(C(N)=O)c1 (stereo not drawn) [Labetalol] | > 100 unbound human Cmax multiplier | Yes | 1 | 26 | 100 unbound human Cmax multiplier | – | 22 | 22 | hepatotoxic | Human Cmax Total [2, 9]: 2680 nM; Albumin IC50 Donor 1 [4, 11]: 26 unbound human Cmax multiplier; Albumin IC50 Donor 2 [4, 11]: 40 unbound human Cmax multiplier; Expected Fraction Unbound in Plasma ([6]; plasma, ref Lau, S.W.J. (65)): 0.5
5 | Cc1cc2c(s1)Nc1ccccc1N=C2N1CCN(C)CC1 [Olanzapine] | – | No | 5 | >20 | – | – | >20 | >2 | – | Morphology Score ([1]; Concentration_Day3 = 1): 2 and 1; Morphology Score ([1]; Concentration_Day3 = 3): 1.333 and 1; Morphology Score ([1]; Concentration_Day3 = 10): 2 and 1; Morphology Score ([1]; Concentration_Day3 = 30): 2; Morphology Score ([1]; Concentration_Day3 = 100): 1.667 and 1.333; Morphology Score ([1]; Concentration_Day3 = 300): 1.333 and 2; Morphology Donor 1 [1, 7]: >300 multiples of the unbound human Cmax; Morphology Donor 2 [1, 8]: >300 multiples of the unbound human Cmax; Morphology Donor 3 ([1]; lowest concentration causing an increase in cellular morphology score, donor 3): >300 multiples of the unbound human Cmax; Human Cmax Total ([2]; human, total plasma Cmax, ref Brunton, L. L., Hilal-Dandan, R. & Knollmann, B. C. (72)): 0.09 nM; Expected Fraction Unbound in Plasma ([6]; plasma, reference data from the literature, no reference): 0.07
6 | CCc1ccc(CCOc2ccc(CC3SC(=O)NC3=O)cc2)nc1 (stereo not drawn) [Pioglitazone] | >300 multiples of the unbound human Cmax | Yes | 3 | 2.8 | >300 multiples of the unbound human Cmax | > 5.3 | 2.8 | > 2.8 | – | Human Cmax Total ([2]; human, total plasma Cmax, ref Xu, J. J. et al. (36)): 3000 nM; Albumin IC50 Donor 1 [4, 10]: 277 multiples of the unbound human Cmax; Albumin IC50 Donor 2 [4, 10]: >300 multiples of the unbound human Cmax
7 | CCOC(=O)CN[C@@H](C(=O)N1CC[C@H]1C(=O)NCc1ccc(/C(N)=N\O)cc1)C1CCCCC1 [Ximelagatran] | 100 unbound human Cmax multiplier | Yes | – | 30 | 300 unbound human Cmax multiplier | 335 | 30 | 300 | only toxic in one of the donors tested | Human Cmax Total ([2]; human therapeutic total plasma Cmax from literature, ref Sivapalasingam, S. & Steigbigel, N. (67)): 450 nM; Albumin IC50 Donor 1 [4, 11]: 32 unbound human Cmax multiplier; Albumin IC50 Donor 2 [4, 11]: > 300 unbound human Cmax multiplier; Expected Fraction Unbound in Plasma ([6]; human plasma, no reference printed (-)): 1
